# Reference: EP3818828A1 (priority 2019, dated 2021)
# Like-named read-outs stand apart in the source and are kept apart here.
# Assays:
# Format in all cases: cell-based
# Phytophthora infestans [1] = conditions: Phytophthora infestas; 1 mg/mL
# [2] = system: Botryosphaeria berengeriana; test: Ex vivo mycelial growth inhibition, growth rate method; conditions: 1 mg/mL
# Source text: (§1) 3-(3',4'-methylenedioxy phenyl)-N-n-propyl acrylamide (at a purity of 99%), 3-(3',4'-methylenedioxy phenyl)-piperidine acrylate (at a purity of 99%), the control agents, 96.5% of chlorothalonil technical (non-systemic broad-spectrum fungicide), 97.2% of carbendazim technical (systemic broad-spectrum fungicide), 97.0% of procymidone technical (systemic fungicide), 96.0% of dimethomorphtechnical ((E,Z)-4-[3-(4-chlorphenyl)3-(3,4-dimethoxy phenyl)acryloyl]morpholine, systemic fungicide), 97.0% of azoxystrobin technical (systemic broad-spectrum fungicide).
# (§2) The inhibition of samples for testing on the mycelial growth of plant pathogenic fungi for testing is determined with a growth rate method. 3-(3',4'-methylenedioxy phenyl)-N-n-propyl acrylamide, 3-(3',4'-methylenedioxy phenyl)-piperidine acrylate and five control agents are dissolved with dimethyl sulfoxide (DMSO), then formulated at 5-7 concentrations of different gradients for test following the trial test results, with the same concentration of DMSO as the control solvent, each treatment in triplicate. Fungal cakes with a diameter of 4 mm are taken from the edge of the colony, inoculated into the center of a PDA plate containing different agents of different concentrations and the DMSO control, with one piece of fungal cake inoculated in each plate (with a diameter of […]), and incubated in a constant temperature incubator at a temperature of 22±1.5°C. 7 days later (10-20 days may be needed for some pathogenic fungi), the diameter of the colony is measured with a cross over method according to the mycelial growth profile of the control pathogenic fungi, then the inhibition rate of mycelial growth is calculated.
# (§3) The computational formula is as below: the inhibition rate of mycelial growth (%) = [(the diameter of the control colony - the diameter of the treated colony)/the diameter of the control colony] × 100.
# (§4) The inhibition results of each agent at a concentration of 1 mg/mL on the mycelial growth of plant pathogenic fungi are shown in Tables 1 and 2.
# [3] = system: Botryosphaeriana berengeriana; test: as above; conditions: 1 mg/mL
# Source text: as §1, §2, §3, §4
# Botrytis cinerea [4] = test: as above; conditions: 1 mg/mL
# Source text: as §1, §2, §3, §4
# C. gossypii = test: as above; conditions: 1 mg/mL
# Source text: as §1, §2, §3, §4
# Colletotrichum capsici [5] = test: as above; conditions: 1 mg/mL
# Source text: as §1, §2, §3, §4
# Coniella diplodiella = test: as above; conditions: 1 mg/mL
# Source text: as §1, §2, §3, §4
# Exserohilum turcicum [6] = test: as above; conditions: 1 mg/mL
# Source text: as §1, §2, §3, §4
# F. oxysporum f. sp. lini = test: as above; conditions: 1 mg/mL
# Source text: as §1, §2, §3, §4
# [7] = system: F. oxysporum f. sp. vasinfectum; test: as above; conditions: 1 mg/mL
# Source text: as §1, §2, §3, §4
# F. verticillioide = test: as above; conditions: 1 mg/mL
# Source text: as §1, §2, §3, §4
# [8] = system: Gaeumannomyces graminis var. graminis and G. graminis var. tritici; test: as above; conditions: 1 mg/mL
# Source text: as §1, §2, §3, §4
# Mycosphaerlla melonis = test: as above; conditions: 1 mg/mL
# Source text: as §1, §2, §3, §4
# Phytophthora capsici = test: as above; conditions: Phytophthora capsici; 1 mg/mL
# Source text: as §1, §2, §3, §4
# Pythium aphanidermatum = test: as above; conditions: 1 mg/mL
# Source text: as §1, §2, §3, §4
# Rhizoctonia solani = test: as above; conditions: Rhizoctonia solani; 1 mg/mL
# Source text: as §1, §2, §3, §4
# Sclerotinia sclerotiorum [9] = test: as above; conditions: 1 mg/mL
# Source text: as §1, §2, §3, §4
# Thanatephorus cucumeris = test: as above; conditions: 1 mg/mL
# Source text: as §1, §2, §3, §4
# Valsa mali [10] = test: as above; conditions: 1 mg/mL
# Source text: as §1, §2, §3, §4
# Fusarium graminearum [11] = test: microbe, parasite or virus in culture
# F. graminearum [12] = test: microbe, parasite or virus in culture
# Pyricularia grisea = test: microbe, parasite or virus in culture
# Phytophthora infestans [13] = test: microbe, parasite or virus in culture; conditions: 1 mg/mL
# Botrytis cinerea [14] = test: Toxicity determination (EC50) on mycelial growth, growth rate method
# Experimental: as §2
# (§5) 3-(3',4'-methylenedioxy phenyl)-piperidine acrylate, the control agents 96.5% of chlorothalonil technical and 97.0% of procymidone technical. Agents for testing and the control agents chlorothalonil and procymidone are treated at 5-8 concentrations of different gradients on the basis of preliminary tests to ensure that the inhibition rates for treatments at all the concentrations are between 10% and 90%.
# (§6) For specific determination methods, with reference to Embodiment 1. The concentration of active ingredients in the culture medium is used as the testing concentration to calculate the toxic regression equation (Y=bx+a) and the median inhibition concentration EC50, 95% confidence limit, and relative toxicity. Relative toxicity (compared to chlorothalonil) = EC50 of chlorothalonil / EC50 of 3-(3',4'-methylenedioxy phenyl)-piperidine acrylate, and relative toxicity (compared to procymidone) = EC50 of procymidone / EC50 of 3-(3',4'-methylenedioxy phenyl)-piperidine acrylate.
# Colletotrichum capsici [15] = test: as above
# Experimental: as §2, §5, §6
# Exserohilum turcicum [16] = test: as above
# Experimental: as §2, §5, §6
# Sclerotinia sclerotiorum [17] = test: as above
# Experimental: as §2, §5, §6
# Valsa mali [18] = test: as above
# Experimental: as §2, §5, §6
# Fusarium graminearum [19] = test: microbe, parasite or virus in culture; remark: listed apart in the source
# F. graminearum [20] = test: microbe, parasite or virus in culture; remark: listed apart in the source
# Magnaporthe grisea = test: microbe, parasite or virus in culture
# Phytophthora infestans [21] = test: microbe, parasite or virus in culture
# [22] = EC50 of chlorothalonil / EC50 of agent
# [23] = EC50 of procymidone / EC50 of agent
# [24] = median inhibition concentration
structure (smiles),measurement,setting,value
"CC12CC1(C)C(=O)N(c1cc(Cl)cc(Cl)c1)C2=O (centres unmarked) [Procymidone, procymidone]",Average Diameter of the Colony,Phytophthora infestans [1],0.80 cm
same,Average Diameter of the Colony,[2],0.15 cm
same,inhibition at 1000 µg/mL,[2],97.8%
same,Average Diameter of the Colony,[3],0.20 cm
same,inhibition at 1000 µg/mL,[3],96.5%
same,Average Diameter of the Colony,Botrytis cinerea [4],1.74 cm
same,inhibition at 1000 µg/mL,Botrytis cinerea [4],76.8%
same,Average Diameter of the Colony,C. gossypii; C. gossypii,1.62 cm
same,inhibition at 1000 µg/mL,"C. gossypii; Colletotrichum gossypii, C. cossypii, read-out: Inhibition Rate",70%
same,Average Diameter of the Colony,Colletotrichum capsici [5],1.19 cm
same,inhibition at 1000 µg/mL,Colletotrichum capsici [5]; Colletotrichum truncatum,82.5%
same,Average Diameter of the Colony,Coniella diplodiella,0.06 cm
same,inhibition at 1000 µg/mL,Coniella diplodiella,99.1%
same,Average Diameter of the Colony,Exserohilum turcicum [6],0.24 cm
same,inhibition at 1000 µg/mL,Exserohilum turcicum [6],96.1%
same,Average Diameter of the Colony,F. oxysporum f. sp. lini,6.33 cm
same,inhibition at 1000 µg/mL,F. oxysporum f. sp. lini; Fusarium oxysporum,29.7%
same,Average Diameter of the Colony,[7],2.57 cm
same,inhibition at 1000 µg/mL,[7]; Fusarium oxysporum,64.5%
same,Average Diameter of the Colony,F. verticillioide,2.57 cm
same,inhibition at 1000 µg/mL,F. verticillioide,24%
same,Average Diameter of the Colony,[8],2.16 cm
same,inhibition at 1000 µg/mL,[8],69.8%
same,Average Diameter of the Colony,Mycosphaerlla melonis,0.24 cm
same,inhibition at 1000 µg/mL,Mycosphaerlla melonis,97.2%
same,Average Diameter of the Colony,Phytophthora capsici,5.10 cm
same,inhibition at 1000 µg/mL,Phytophthora capsici,3.77%
same,Average Diameter of the Colony,Pythium aphanidermatum,6.20 cm
same,inhibition at 1000 µg/mL,Pythium aphanidermatum,7.46%
same,Average Diameter of the Colony,Rhizoctonia solani,0.00 cm
same,inhibition at 1000 µg/mL,Rhizoctonia solani,100%
same,Average Diameter of the Colony,Sclerotinia sclerotiorum [9],0.00 cm
same,inhibition at 1000 µg/mL,Sclerotinia sclerotiorum [9],100%
same,Average Diameter of the Colony,Thanatephorus cucumeris,0.54 cm
same,inhibition at 1000 µg/mL,Thanatephorus cucumeris,93.7%
same,Average Diameter of the Colony,Valsa mali [10],0.83 cm
same,inhibition at 1000 µg/mL,Valsa mali [10]; Cytospora mali,89%
same,Average Diameter of the Colony,Fusarium graminearum [11]; 1 mg/mL,2.26 cm
same,inhibition at 1000 µg/mL,Fusarium graminearum [11]; read-out: Inhibition Rate,57.7%
same,Average Diameter of the Colony,"F. graminearum [12]; F. graminearum, 1 mg/mL",3.57 cm
same,inhibition at 1000 µg/mL,"F. graminearum [12]; Fusarium graminearum, read-out: Inhibition Rate",58.5%
same,Average Diameter of the Colony,Pyricularia grisea; 1 mg/mL,4.63 cm
same,inhibition at 1000 µg/mL,Pyricularia grisea; read-out: Inhibition Rate,48.6%
same,Average Diameter of the Colony,Phytophthora infestans [13],0.00 cm
same,Relative Toxicity (Compared to Chlorothalonil),Botrytis cinerea [14]; [22],2.24
same,Relative Toxicity (Compared to Procymidone),Botrytis cinerea [14]; [23],1.00
same,EC50,Botrytis cinerea [14]; [24],78.9 µg/mL
same,EC50,"Colletotrichum capsici [15]; Colletotrichum truncatum, median inhibition concentration, read-out: EC50",518 µg/mL
same,Relative Toxicity (Compared to Chlorothalonil),Colletotrichum capsici [15]; [22],0.78
same,Relative Toxicity (Compared to Procymidone),Colletotrichum capsici [15]; [23],1.00
same,Relative Toxicity (Compared to Chlorothalonil),Exserohilum turcicum [16]; [22],3.92
same,Relative Toxicity (Compared to Procymidone),Exserohilum turcicum [16]; [23],1.00
same,EC50,"Exserohilum turcicum [16]; median inhibition concentration, read-out: EC50",105 µg/mL
same,Relative Toxicity (Compared to Chlorothalonil),Sclerotinia sclerotiorum [17]; [22],0.89
same,Relative Toxicity (Compared to Procymidone),Sclerotinia sclerotiorum [17]; [23],1.00
same,EC50,Sclerotinia sclerotiorum [17]; [24],70.6 µg/mL
same,Relative Toxicity (Compared to Chlorothalonil),Valsa mali [18]; [22],0.98
same,Relative Toxicity (Compared to Procymidone),Valsa mali [18]; [23],1.00
same,EC50,Valsa mali [18]; [24],427.3 µg/mL
same,Relative Toxicity (Compared to Chlorothalonil),Fusarium graminearum [19]; [22],3.27
same,Relative Toxicity (Compared to Procymidone),Fusarium graminearum [19]; [23],1.00
same,EC50,Fusarium graminearum [19]; [24],144 µg/mL
same,Relative Toxicity (Compared to Chlorothalonil),F. graminearum [20]; [22],0.27
same,Relative Toxicity (Compared to Procymidone),F. graminearum [20]; [23],1.00
same,EC50,"F. graminearum [20]; Fusarium graminearum, median inhibition concentration",850 µg/mL
same,Relative Toxicity (Compared to Chlorothalonil),Magnaporthe grisea; [22],1.42
same,Relative Toxicity (Compared to Procymidone),Magnaporthe grisea; [23],1.00
same,EC50,"Magnaporthe grisea; Pyricularia oryzae, median inhibition concentration",308 µg/mL
same,Relative Toxicity (Compared to Chlorothalonil),Phytophthora infestans [21]; [22],0.15
same,Relative Toxicity (Compared to Procymidone),Phytophthora infestans [21]; [23],1.00
same,EC50,Phytophthora infestans [21]; [24],778 µg/mL
